Tested on: human calcitonin receptor
Assay: Calcitonin receptor radial partition binding assay, displacement of (3-[125I]iodotyrosyl-22) salmon calcitonin
Details: 1 micromolar salmon calcitonin; MEL cell membranes with cloned human calcitonin receptor; room temperature, 40 minutes; FIG. 3
Protocol: The lysate was transferred to a glass/Teflon homogeniser and given 10 strokes to ensure cell disruption. The homogenate was centrifuged at 3,000 rpm (1100 g) for 10 minutes at 4 deg.C. […] The low-speed supernatant was removed, and the pellet re-suspended in 10 ml of homogenisation buffer and dispersed with 3×10 second treatments with the Polytron homogeniser, followed by low-speed centifugation as described above. The supernatants from both spins were combined. This was then centrifuged for 30 minutes at 33,000 rpm (100,000 g) at 4 deg C. in an L7 Ultracentrifuge (Beckman) using a Ti75 head. The pellet was re-suspended in 20 mM HEPES, pH 7.4, and re-centrifuged. This pellet was then re-suspended as before and treated with 10 strokes of the glass/Teflon homogeniser.
Protein determination was by the […] method of the Pierce Chemical Co., using their recommended protocol and bovine serum albumin (BSA) as a standard. Membranes were diluted to a stock concentration of 0.08 mg/ml protein, and stored at -70 deg. C.
To a 30×43 cm glass fibre filter mat (Tomtec RG) was added 4 microlitres of receptor preparation to 2,304 positions in a rectangular array. This was allowed to dry for 2 hours at room temperature. […]
The mat was allowed to dry completely and was exposed to a storage phosphor screen (Molecular Dynamics) for 3 hours and analysed using a PhosphorImager SF (Molecular Dynamics).

calcitonin [salmon calcitonin]
inhibition of binding of [125I] salmon calcitonin (central spot, PhosphorImager): full inhibition of binding
